Literature values, collected in patent US20070142355A1, “Association of a sinus node If curent inhibitor and an angiotensin converting enzyme inhibitor, and pharmaceutical compositions containing it” (LES LABORATOIRES SERVIER, priority 2005, published 2007).

Settings: ivabradine alone, as generally established in clinical trials

In the case of COc1cc2c(cc1OC)CC(=O)N(CCCN(C)C[C@H]1Cc3cc(OC)c(OC)cc31)CC2 [ivabradine, 3-{3-[{[(7S)-3,4-dimethoxy-bicyclo[4.2.0]octa-1,3,5-trien-7-yl]methyl}(methyl)amino]propyl}-7,8-dimethoxy-1,3,4,5-tetrahydro-2H-3-benzazepin-2-one], the “slight increase in systolic arterial pressure” value is listed as about 1 mmHg.
